Measured values reported in the METLIN SMRT retention time set (Domingo-Almenara et al. 2019).

Assay: gradient 5% acetonitrile 3 min, to 50% in 2 min, to 85% in 15 min, held 3 min, 100 µL/min
Conditions: column: Zorbax Extend-C18 2.1 x 50 mm; eluents: water / acetonitrile, 0.1% formic acid
Method in brief: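 Using water and acetonitrile that each contained 0.1% formic acid, mixtures of ~100 pure standards were separated at 100 μL/min on a Zorbax Extend-C18 column (2.1 × 50 mm, 1.8 μm). The HPLC fed a quadrupole time-of-flight mass spectrometer working in positive and negative ionization mode, with dead and dwell volumes of 40 μL and 900 μL. Data were acquired over 3 months. Retention time was read from computationally picked adduct peaks after manual inspection of each.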

RP-LC retention time | SMILES
644 s | O=C(CC1CCN(C(=O)c2cc3cc(Cl)ccc3[nH]2)CC1)NCCCN1CCCC1
664 s | O=C(CCc1nnn2c1CN(C(=O)Nc1cccc(F)c1)CC2)NC1CC1
607 s | CCCc1nnc(NC(=O)c2ccc3[nH]c(C)cc(=O)c3c2)s1
956 s | O=C(Cn1c(=O)cc(-c2nc(C3CC3)no2)c2ccccc21)NCc1ccccc1Cl
553 s | OCCN1CCN(CC(O)COc2ccc3c(c2)CCC3)CC1 (configuration not stated)
608 s | CCCNC(=O)c1ccc2nc(CCc3ccc(NC(=O)CC)cc3)[nH]c2c1
753 s | CCOC(=O)c1ccc(NC(=O)Cn2cnc3nc(N4CCCC4)ncc3c2=O)cc1
861 s | O=S(=O)(Cc1ccccc1F)N1CCOc2ccc(N3CCOCC3)cc2C1
676 s | CCn1ccc2c(cc(C(=O)NCc3ccc4c(c3)OCO4)n2C)c1=O
1090 s | CC1=NS(=O)(=O)N(Cc2ccccc2)C=C1C(=O)OCc1ccc(F)cc1F
964 s | Cc1ccc2[nH]cc(CCNC(=O)c3c(-c4ccccn4)noc3C)c2c1
1010 s | O=C(NCCCCCCCCNC(=O)c1cccc2ccccc12)c1cccc2ccccc12
875 s | CC(C)Oc1ccc(CN2C(=O)C3(CCOCC3)CC2c2nnnn2C(C)(C)C)cc1 (configuration not stated)
1000 s | CCN(CC)S(=O)(=O)c1ccc2c(c1)N(CC(=O)NCCc1ccccc1)C(=O)C1CCCCN21 (configuration not stated)
684 s | Cc1ccc(Cc2c(C)nc3c(C(=O)NCCCN4CCOCC4)cnn3c2C)cc1
970 s | Cn1nc(-c2nc(C3CC3)no2)c2c1CCN(C(=O)c1ccc(C(F)(F)F)s1)C2
593 s | COc1ccc(C2CC(=O)c3cnc(Nc4nc(C)c5ccc(C)cc5n4)nc3C2)cc1 (configuration not stated)
785 s | CCOc1ccc(NC(=O)C2CCCN2S(=O)(=O)c2cc3c(cc2Cl)NC(=O)CO3)cc1 (configuration not stated)
751 s | CCN1C(=O)C(CC(=O)NC(C)c2ccccc2)Sc2ncccc21 (configuration not stated)
858 s | O=C(c1cn2nc(Cl)ccc2n1)N1CCN(c2ccc(Cl)cc2)CC1
1060 s | Cc1nc2cc(-c3noc(Cc4ccccc4C)n3)ccc2o1
594 s | CC1(C)C(=O)NCCN1C(=O)CN1C(=O)c2ccccc2C1=O

RP-LC retention time | SMILES
910 s | CCC(c1cccs1)N1C(=O)[C@H]2CN(S(=O)(=O)c3ccc(OC)cc3)C[C@H]2C1=O (some centres not stated)
778 s | Cc1cccc(C)c1NC(=O)C1CCCN1S(=O)(=O)c1cc2c(cc1Cl)NC(=O)CO2 (configuration not stated)
834 s | O=c1c2nc(-c3ccc4c(c3)OCO4)cn2ccn1-c1ccc(Cl)cc1
905 s | N#CCc1ccc(NC(=O)C2CCCN(S(=O)(=O)Cc3ccccc3Cl)C2)cc1 (configuration not stated)
794 s | CC(=O)Nc1ccc(Nc2nc3ccccc3nc2NS(=O)(=O)c2cccs2)cc1
829 s | CCc1cc(C2CCCN2C(=O)Nc2ccc(OC)cc2OC)on1 (configuration not stated)
1270 s | Cc1cccc(-c2noc(C3CCCN3S(=O)(=O)c3ccc4c(c3)CCC4)n2)c1 (configuration not stated)
608 s | Cc1ccc(NC(=O)Cn2c(N)nc(C)c(C)c2=O)c(C)c1
1010 s | Cn1ccc2cc(S(=O)(=O)N3CCCC(C(=O)NC4CCCCCC4)C3)ccc21 (configuration not stated)
970 s | CCOC(=O)c1nnn(-c2ccccc2OCC)c1C(=O)OCC
1010 s | O=C(NCc1nc(-c2ccc3oc(-c4ccccc4)nc3c2)no1)c1ccccc1
763 s | Cc1cc(Br)ccc1NC(=O)C1CCN(C(=O)c2cccn2-c2cccnc2)CC1
864 s | O=C(c1ccccc1Cl)N1CCC(Cc2nnc(-c3ccccc3)o2)CC1
929 s | Fc1ccc(Br)cc1-c1nc2ccc(Cl)cn2c1Nc1ccc2c(c1)OCCO2
1110 s | O=c1c2cc(-c3ccc(F)cc3)nn2cnn1Cc1nc(-c2ccccc2Cl)no1
1350 s | CCOC(=O)c1cnc(N2CCN(c3ccccc3F)CC2)c2ccccc12
776 s | CC(C)(C)OC(=O)CN(c1ccc(F)cc1)S(=O)(=O)c1cccn2cnnc12
890 s | COc1ccc(NC(=O)CSc2ccc(-c3cccs3)nn2)c(OC)c1
894 s | CN(C)c1ccc(-c2nc3cnc(Br)cn3c2Nc2ccc3c(c2)OCO3)cc1
1050 s | O=C(Nc1cccc(F)c1)C1CCCN(c2nc3ccsc3c(=O)n2Cc2ccc(F)cc2)C1 (configuration not stated)
705 s | Cc1nc(NC(=O)c2ccc(F)cc2)nc2cc3c(cc12)OCO3
631 s | CNC(=O)c1cc(Nc2ccc3nc(Nc4ccc(Cl)c(C(F)(F)F)c4)[nH]c3c2)ccn1

RP-LC retention time | SMILES
600 s | O=C(NC1CC1)c1cc(N2CCCC2)nc2ccc(F)cc12
763 s | Cc1cccc(CNC(=O)C2CCN(S(=O)(=O)c3cc(C(=O)N4CCOCC4)cs3)CC2)c1
658 s | CCOC(=O)CNC(=O)NCC(=O)N1CCc2ccccc21
992 s | Cc1ccc(NC(=O)C2CCN(S(C)(=O)=O)c3cc(Cl)ccc3O2)c(C)c1 (configuration not stated)
752 s | Cc1cc(C)n2nc(SCC(=O)NC3CCC(C)CC3)nc2n1 (configuration not stated)
638 s | CCOc1ccccc1N1CCN(c2cc(C(=O)O)c3cc(NC(=O)C4CCCC4)ccc3n2)CC1
862 s | O=C1OC(Nc2nc(-c3cccc(Br)c3)cs2)c2ccccc21 (configuration not stated)
851 s | CC(C)NC(=O)c1nnc(-c2ccc(S(=O)(=O)N3CCCCC3)cc2)o1
616 s | CC(CCNC(=O)CN1C(=O)CCn2nc(-c3cn(C)c4ccccc34)cc21)N1CCCC1 (configuration not stated)
878 s | Cc1cccc(NC(=O)C2CCCN(S(=O)(=O)c3cn(C(C)C)cn3)C2)c1C (configuration not stated)
874 s | Cc1nc(C2CCOCC2)n(C2CCN(S(=O)(=O)c3c(C)c(C)cc(C)c3C)C2)n1 (configuration not stated)
622 s | CC(C)NC(=O)CCc1c(-c2ccc(Cl)cc2)nc2ccccn12
904 s | Cc1noc(C)c1-c1ccc(S(=O)(=O)Nc2ccc(F)cc2)cc1
933 s | Cc1ccc2[nH]cc(CCNC(=O)C3CCN(S(=O)(=O)c4ccc5c(ccn5C)c4)CC3)c2c1
684 s | Cc1cc(=O)n(CC(=O)NCc2ccccc2)c(N(C)Cc2ccccc2)n1
730 s | CN(C)S(=O)(=O)c1ccc(C(=O)NCc2ccsc2)cc1
630 s | O=C(CCc1conc1-c1ccccc1)N1CCN(C2CCCCC2)CC1
1170 s | Cn1nccc1-c1cccc(-c2noc(-c3ccc(F)c(F)c3)n2)c1
700 s | CCn1cc(C(CNC(=O)Nc2ccc(OC)cc2)c2cccnc2)c2ccccc21 (configuration not stated)
917 s | CCOc1ccccc1NC(=O)Cn1nc(C(=O)N2CCCC2)c2ccccc21
675 s | CN(C)c1ccc(NC(=O)c2cn(-c3ccc(F)cc3)nn2)cc1
1200 s | CC(C)Cc1csc(-c2csc(S(=O)(=O)NCc3cc(F)cc(F)c3)c2)n1

RP-LC retention time | SMILES
747 s | CCN1C(=O)c2cccnc2Sc2cc(CNC(=O)c3cccn3C)ccc21
557 s | CCCNc1cc(N2CCC(CCC(=O)NCCc3ccccn3)CC2)ncn1
660 s | O=C(CCc1c(-c2ccc(Br)cc2)nc2ccccn12)NCc1ccco1
688 s | CCOCCCNC(=O)C1CCCN(c2nnc(C)c3c(C)n(-c4ccc(Cl)cc4)nc23)C1 (configuration not stated)
875 s | O=C(C1=CN(c2cc(Cl)cc(Cl)c2)c2cc(F)ccc2S1(=O)=O)N1CCOCC1
608 s | CCCCN(C)C(=O)c1cn2cc(C)ccc2n1
1130 s | COc1ccc(-c2noc(C3CCCN3C(=O)Nc3cc(Cl)ccc3OC)n2)cc1 (configuration not stated)
1070 s | Cc1ccc(N2C(=O)C3N=NN(Cc4nc(-c5ccc(Br)cc5)no4)C3C2=O)cc1 (configuration not stated)
775 s | O=C(Nc1nnc(-c2ccco2)o1)c1ccc2c(c1)CCCC2
1230 s | COc1ccc(CN2C=C(C(=O)OCc3noc(-c4ccc(C)c(C)c4)n3)C(C)=NS2(=O)=O)cc1
1300 s | CC(C)(C)c1csc(-c2csc(S(=O)(=O)Nc3ccc(Cl)cc3F)c2)n1
820 s | Cc1noc(CC2CCOC3(CCN(C(=O)C4(c5ccccc5)CC4)CC3)C2)n1 (configuration not stated)
903 s | Cc1ccccc1OCC(=O)NC(C)c1ccccc1 (configuration not stated)
594 s | c1ccc(-c2nc(-c3ccnc(N4CCCC4)c3)no2)nc1
790 s | COC(=O)c1ccc(Cn2cnc3c(Cl)ncnc32)cc1
986 s | CCCOc1ccc(S(=O)(=O)n2cccn2)cc1C
618 s | COc1ccc(C(=O)N2C[C@@H]3C[C@H]2C[C@@H]3NC(=O)c2cccnc2)cc1F
656 s | CNC(=O)c1nn(C)c2c1C(C)(C)Cc1cnc(Nc3ccc(N4CCN(C)CC4)cc3)nc1-2
1040 s | Cc1ccc(-c2nnc(-c3ccc(Cl)c(S(=O)(=O)N(C)C)c3)o2)cc1
1220 s | Cc1cccc(-c2nnc(-c3cccc(S(=O)(=O)N4CCC(C)CC4)c3)o2)c1

SMILES | RP-LC retention time
CN(C(=O)Cc1ccc(Cl)c(Cl)c1)C(CN1CCCC1)c1cccc(OCC(=O)O)c1 (configuration not stated) | 770 s
